# Laboratory results reported in US8268747B2, “Safening penoxsulam herbicide injury in water-seeded, direct-seeded and transplanted paddy rice” (Dow AgroSciences, LLC., priority 2009, dated 2012).
# Experiments:
# [1] = system: Leptochloa fascicularis (sprangletop); assay: % visual weed control in water-seeded rice, LEFFA; type: in vivo; details: 13 days after seeding, 27 days after treatment
# Description: (§1) Pre-germinated rice was applied directly into a flooded rice paddy. The rice paddy was prepared as per normal cultural practices, by applying appropriate fertilizers, working and leveling the ground before flooding, with water flooded across the entire field to a depth of 1 to 5 inches prior to seeding with the pre-germinated rice seed.
# (§2) Treatments consisted of penoxsulam and clomazone applied alone and in combination directly into the flooded rice paddy as granular formulated treatments. These treatments could also be applied as liquid applications directly into the water. Clomazone was applied the day of rice seeding, at 13 days after rice seeding, and in combination with penoxsulam at 13 days after rice seeding. Penoxsulam was applied alone and in combination with clomazone at 13 days after rice seeding.
# (§3) Colby's equation was used to determine the herbicidal effects expected from the mixtures (Colby, S. R. 1967. Calculation of the synergistic and antagonistic response of herbicide combinations. Weeds 15:20-22.).
# (§4) The following equation was used to calculate the expected activity of mixtures containing two active ingredients, A and B: Expected=A+B−(A×B/100)
# (§5) A=observed efficacy of active ingredient A at the same concentration as used in the mixture.
# (§6) B=observed efficacy of active ingredient B at the same concentration as used in the mixture.
# [2] = system: Cyperus difformis (smallflower umbrella sedge); assay: % visual weed control in water-seeded rice, CYPDI; type: in vivo; details: 13 days after seeding, 27 days after treatment
# Description: as §1, §2, §3, §4, §5, §6
# [3] = system: Echinochloa oryzoides (watergrass); assay: % visual weed control in water-seeded rice, ECHOR; type: in vivo; details: 13 days after seeding, 27 days after treatment
# Description: as §1, §2, §3, §4, §5, §6
# [4] = system: Oryza sativa 'M205' (rice); details: in vivo
# Description: (§7) Evaluation of Postemergence Herbicidal Safening in Water-Seeded Rice
# as §1, §2, §3, §4, §5, §6
# [5] = system: Oryza sativa 'M205' (rice); assay: Rice % stand reduction, postemergence safening in water-seeded rice
# Description: as §7, §1, §2, §3, §4, §5, §6
smiles,measurement,setting,value
"COc1cnc(OC)n2nc(NS(=O)(=O)c3c(OCC(F)F)cccc3C(F)(F)F)nc12 [Penoxsulam, 2-(2,2-difluoroethoxy)-N-(5,8-dimethoxy[1,2,4]triazolo[1,5-c]pyrimidin-2-yl)-6-(trifluoromethyl)benzenesulfonamide]",% Weed Control Ratings LEFFA (2) Obs,[1]; penoxsulam 40 g ai/ha alone,74%
same,% Weed Control Ratings CYPDI (3) Obs,[2]; penoxsulam 40 g ai/ha alone,99%
same,% Weed Control Ratings ECHOR (1) Obs,[3]; penoxsulam 40 g ai/ha alone,98%
same,Rice % Visual Injury Ratings ORYSA (1) Obs,[4],12%
same,Rice % Visual Injury Ratings ORYSA (2) Obs,[4],9%
same,Rice % Visual Injury Ratings ORYSA (3) Obs,[4],5%
same,injury to rice (text summary of Table 1),[4],slight injury
same,Rice % Stand Reduction Ratings ORYSA (1) Exp,[5]; in vivo,27%
same,Rice % Stand Reduction Ratings ORYSA (1) Obs,[5]; in vivo,27%
same,Rice % Stand Reduction Ratings ORYSA (2) Exp,[5]; in vivo,33%
same,Rice % Stand Reduction Ratings ORYSA (2) Obs,[5]; in vivo,33%
same,Rice % Stand Reduction Ratings ORYSA (3) Exp,[5]; in vivo,33%
same,Rice % Stand Reduction Ratings ORYSA (3) Obs,[5]; in vivo,33%
same,impact on the rice stand (text summary of Table 2),[5]; in vivo,slight negative impact
"CC1(C)CON(Cc2ccccc2Cl)C1=O [Clomazone, 2-[(2-chlorophenyl)methyl]-4,4-dimethyl-3-isoxazolidinone]",% Weed Control Ratings LEFFA (2) Obs,[1]; clomazone 224 g ai/ha alone,98%
same,% Weed Control Ratings LEFFA (2) Obs,[1]; clomazone 336 g ai/ha alone,99%
same,% Weed Control Ratings LEFFA (2) Obs,[1]; clomazone 448 g ai/ha alone,99%
same,% Weed Control Ratings CYPDI (3) Obs,[2]; clomazone 224 g ai/ha alone,73%
same,% Weed Control Ratings CYPDI (3) Obs,[2]; clomazone 336 g ai/ha alone,88%
same,% Weed Control Ratings CYPDI (3) Obs,[2]; clomazone 448 g ai/ha alone,87%
same,% Weed Control Ratings ECHOR (1) Obs,[3]; clomazone 224 g ai/ha alone,93%
same,% Weed Control Ratings ECHOR (1) Obs,[3]; clomazone 336 g ai/ha alone,96%
same,% Weed Control Ratings ECHOR (1) Obs,[3]; clomazone 448 g ai/ha alone,97%
same,visual injury to rice (text summary of Table 1),[4],0-3%
same,effect on the rice stand (text summary of Table 2),[5]; clomazone alone,negligible effect
same,Rice % Stand Reduction Ratings ORYSA (3) Exp,[5]; in vivo,3%
same,Rice % Stand Reduction Ratings ORYSA (3) Obs,[5]; in vivo,3%
